Converted amounts (≈) assume the structure as drawn.
Tests used:
Assay type in all cases: functional
Staphylococcus aureus [1] = test: In vitro minimum inhibitory concentration against Staphylococcus aureus ATCC 25923 after incubation in air at 35 degree C for 24 hr using agar dilution method; conditions: ATCC 25923, 24 h
Enterococcus faecalis = test: In vitro minimum inhibitory concentration against Enterococcus faecalis ATCC 29212 after incubation in air at 35 degree C for 24 hr using agar dilution method; conditions: ATCC 29212, 24 h
Streptococcus pneumoniae = test: In vitro minimum inhibitory concentration against Streptococcus pneumoniae ATCC 6303 after incubation in air at 35 degree C for 24 hr using agar dilution method; conditions: ATCC 6303, 24 h
Enterococcus faecium = test: In vitro minimum inhibitory concentration against vancomycin-resistant Enterococcus faecium 6A after incubation in air at 35 degree C for 24 hr using agar dilution method
Staphylococcus aureus [2] = test: In vitro minimum inhibitory concentration against methicillin-resistant Staphylococcus aureus 562 after incubation in air at 35 degree C for 24 hr using agar dilution method
Streptococcus pyogenes = test: In vitro minimum inhibitory concentration against Streptococcus pyogenes ATCC 19615 after incubation in air at 35 degree C for 24 hr using agar dilution method; conditions: ATCC 19615, 24 h
Staphylococcus aureus [3] = test: In vivo effective dose (on day 7-post-infection) against methicillin-resistant Staphylococcus aureus 562 infected mice upon peroral administration at 30 min and 4 hr post-infection; conditions: po
Escherichia coli [4] = test: Minimum inhibitory concentration against wild-type Escherichia coli strain
Escherichia coli [5] = test: Minimum inhibitory concentration against Tol C pump deficient Escherichia coli strain
Escherichia coli [6] = test: Minimum inhibitory concentration against […] AB pump deficient Escherichia coli strain

In the case of CC(=O)NC[C@H]1CN(c2ccc(N3CCN(Cc4ccc(Br)o4)CC3)c(F)c2)C(=O)O1, the MIC (Staphylococcus aureus [1]) is reported as over 16 µg/mL, the MIC (Enterococcus faecalis) is reported as over 16 µg/mL and the MIC (Streptococcus pneumoniae) is reported as over 16 µg/mL. For the same compound, the MIC (Enterococcus faecium) was over 16 µg/mL, the MIC (Staphylococcus aureus [2]) was over 16 µg/mL and the MIC (Streptococcus pyogenes) was over 16 µg/mL.

CC(=O)NC[C@H]1CN(c2ccc(N3C[C@@H]4[C@@H](CN(C)c5ccc([N+](=O)[O-])o5)[C@@H]4C3)c(F)c2)C(=O)O1 was tested, and the MIC (Staphylococcus aureus [1]) was 2 µg/mL (≈ 4.1 µM), the ED50 (Staphylococcus aureus [3]) was over 25 mg/kg and the MIC (Enterococcus faecalis) was 4 µg/mL (≈ 8.21 µM). For the same compound, the MIC (Enterococcus faecium) was 2 µg/mL (≈ 4.1 µM), the MIC (Staphylococcus aureus [2]) was 1 µg/mL (≈ 2.05 µM) and the MIC (Streptococcus pyogenes) was 0.125 µg/mL (≈ 0.256 µM).

Compound CC(=O)NC[C@H]1CN(c2ccc(N3C[C@@H](C)N(Cc4ccc([N+](=O)[O-])o4)[C@@H](C)C3)c(F)c2)C(=O)O1 has an MIC (Staphylococcus aureus [1]) of 16 µg/mL (≈ 32.7 µM), an MIC (Enterococcus faecalis) of 8 µg/mL (≈ 16.3 µM) and an MIC (Streptococcus pneumoniae) of 16 µg/mL (≈ 32.7 µM). For the same compound, the MIC (Enterococcus faecium) was 8 µg/mL (≈ 16.3 µM), the MIC (Staphylococcus aureus [2]) was 8 µg/mL (≈ 16.3 µM) and the MIC (Streptococcus pyogenes) was 16 µg/mL (≈ 32.7 µM).

With CC(=O)NC[C@H]1CN(c2ccc(N3CCN(Cc4ccc([N+](=O)[O-])s4)CC3)c(F)c2)C(=O)O1 the MIC (Staphylococcus aureus [1]) was 8 µg/mL (≈ 16.8 µM), the MIC (Enterococcus faecalis) was 8 µg/mL (≈ 16.8 µM) and the MIC (Streptococcus pneumoniae) was 8 µg/mL (≈ 16.8 µM). For the same compound, the MIC (Enterococcus faecium) was 8 µg/mL (≈ 16.8 µM), the MIC (Staphylococcus aureus [2]) was 8 µg/mL (≈ 16.8 µM) and the MIC (Streptococcus pyogenes) was 1 µg/mL (≈ 2.09 µM).

Compound CC(=O)NC[C@H]1CN(c2ccc(N3CCN(Cc4ccc([N+](=O)[O-])n4C)CC3)c(F)c2)C(=O)O1 has an MIC (Staphylococcus aureus [1]) of 4 µg/mL (≈ 8.43 µM), an MIC (Enterococcus faecalis) of 4 µg/mL (≈ 8.43 µM) and an MIC (Streptococcus pneumoniae) of 8 µg/mL (≈ 16.9 µM). The MIC (Enterococcus faecium) was 4 µg/mL (≈ 8.43 µM), the MIC (Staphylococcus aureus [2]) was 4 µg/mL (≈ 8.43 µM) and the MIC (Streptococcus pyogenes) was 2 µg/mL (≈ 4.22 µM).

Work on CC(=O)NC[C@H]1CN(c2ccc(N3CCN(Cc4ccc(/C=N/N)o4)CC3)c(F)c2)C(=O)O1 yielded an MIC (Staphylococcus aureus [1]) of 2 µg/mL (≈ 4.36 µM), an MIC (Enterococcus faecalis) of 8 µg/mL (≈ 17.4 µM) and an MIC (Streptococcus pneumoniae) of 8 µg/mL (≈ 17.4 µM). For the same compound, the MIC (Enterococcus faecium) was 8 µg/mL (≈ 17.4 µM), the MIC (Staphylococcus aureus [2]) was 1 µg/mL (≈ 2.18 µM) and the MIC (Streptococcus pyogenes) was 8 µg/mL (≈ 17.4 µM).

Work on CN[C@H](CC(C)C)C(=O)N[C@H]1C(=O)N[C@@H](CC(N)=O)C(=O)N[C@H]2C(=O)N[C@H]3C(=O)N[C@H](C(=O)N[C@H](C(=O)O)c4cc(O)cc(O)c4-c4cc3ccc4O)[C@H](O)c3ccc(c(Cl)c3)Oc3cc2cc(c3O[C@@H]2O[C@H](CO)[C@@H](O)[C@H](O)[C@H]2O[C@H]2C[C@](C)(N)[C@H](O)[C@H](C)O2)Oc2ccc(cc2Cl)[C@H]1O [VANCOMYCIN] yielded an ED50 (Staphylococcus aureus [3]) of 8.8 mg/kg, an MIC (Enterococcus faecalis) of over 16 µg/mL and an MIC (Streptococcus pneumoniae) of 0.5 µg/mL (≈ 0.345 µM).

For CC(=O)NC[C@H]1CN(c2ccc(N3CCOCC3)c(F)c2)C(=O)O1 [LINEZOLID], the ED50 (Staphylococcus aureus [3]) was 5.6 mg/kg, the MIC (Enterococcus faecium) was 2 µg/mL (≈ 5.93 µM) and the MIC (Streptococcus pyogenes) was 2 µg/mL (≈ 5.93 µM).

Work on CC(=O)NC[C@H]1CN(c2ccc(N3CCN(Cc4ccoc4[N+](=O)[O-])CC3)c(F)c2)C(=O)O1 yielded an MIC (Staphylococcus aureus [1]) of 8 µg/mL (≈ 17.3 µM), an MIC (Enterococcus faecalis) of 4 µg/mL (≈ 8.67 µM) and an MIC (Streptococcus pneumoniae) of 1 µg/mL (≈ 2.17 µM). The MIC (Enterococcus faecium) was 4 µg/mL (≈ 8.67 µM), the MIC (Staphylococcus aureus [2]) was 4 µg/mL (≈ 8.67 µM) and the MIC (Streptococcus pyogenes) was 1 µg/mL (≈ 2.17 µM).

With CC(=O)NC[C@H]1CN(c2ccc(N3CCN(Cc4ccc(COC(C)=O)o4)CC3)c(F)c2)C(=O)O1 the MIC (Staphylococcus aureus [1]) was over 16 µg/mL, the MIC (Enterococcus faecalis) was over 16 µg/mL and the MIC (Streptococcus pneumoniae) was over 16 µg/mL. The MIC (Enterococcus faecium) was over 16 µg/mL, the MIC (Staphylococcus aureus [2]) was over 16 µg/mL and the MIC (Streptococcus pyogenes) was over 16 µg/mL.

CC(=O)NC[C@H]1CN(c2ccc(N3CCN(Cc4ccc([N+](=O)[O-])o4)CC3)c(F)c2)C(=O)O1.Cl [RANBEZOLID CHLORIDE] was tested, and the MIC (Staphylococcus aureus [1]) was 1 µg/mL, the MIC (Escherichia coli [4]) was at most 16 µg/mL and the MIC (Enterococcus faecalis) was 2 µg/mL. It also gave an MIC (Streptococcus pneumoniae) of 0.125 µg/mL, an MIC (Enterococcus faecium) of 2 µg/mL and an MIC (Escherichia coli [5]) of 2 µg/mL. For the same compound, the MIC (Staphylococcus aureus [2]) was 1 µg/mL, the MIC (Escherichia coli [6]) was 2 µg/mL and the MIC (Streptococcus pyogenes) was 0.125 µg/mL.

In the case of CC(=O)NC[C@H]1CN(c2ccc(N3CCN(Cc4ccco4)CC3)c(F)c2)C(=O)O1, the MIC (Staphylococcus aureus [1]) is reported as 8 µg/mL (≈ 19.2 µM), the ED50 (Staphylococcus aureus [3]) is reported as over 25 mg/kg and the MIC (Enterococcus faecalis) is reported as 8 µg/mL (≈ 19.2 µM). It also gave an MIC (Streptococcus pneumoniae) of 8 µg/mL (≈ 19.2 µM), an MIC (Enterococcus faecium) of 8 µg/mL (≈ 19.2 µM) and an MIC (Staphylococcus aureus [2]) of 8 µg/mL (≈ 19.2 µM). For the same compound, the MIC (Streptococcus pyogenes) was 4 µg/mL (≈ 9.6 µM).

CC(=O)NC[C@H]1CN(c2ccc(N3CCN(Cc4ccc(C#N)o4)CC3)c(F)c2)C(=O)O1 showed an MIC (Staphylococcus aureus [1]) of 16 µg/mL (≈ 36.2 µM), an MIC (Enterococcus faecalis) of 16 µg/mL (≈ 36.2 µM) and an MIC (Streptococcus pneumoniae) of 16 µg/mL (≈ 36.2 µM). For the same compound, the MIC (Enterococcus faecium) was 16 µg/mL (≈ 36.2 µM), the MIC (Staphylococcus aureus [2]) was 16 µg/mL (≈ 36.2 µM) and the MIC (Streptococcus pyogenes) was 16 µg/mL (≈ 36.2 µM).

In the case of CC(=O)NC[C@H]1CN(c2ccc(N3CCN(Cc4ccc([N+](=O)[O-])[nH]4)CC3)c(F)c2)C(=O)O1, the MIC (Staphylococcus aureus [1]) is reported as 4 µg/mL (≈ 8.69 µM), the MIC (Enterococcus faecalis) is reported as 4 µg/mL (≈ 8.69 µM) and the MIC (Streptococcus pneumoniae) is reported as 4 µg/mL (≈ 8.69 µM). The MIC (Enterococcus faecium) was 4 µg/mL (≈ 8.69 µM), the MIC (Staphylococcus aureus [2]) was 4 µg/mL (≈ 8.69 µM) and the MIC (Streptococcus pyogenes) was 1 µg/mL (≈ 2.17 µM).

— ChEMBL document CHEMBL1141053, “Synthesis and SAR of novel oxazolidinones: discovery of ranbezolid” (2005)
